Data taken from US20260344668A1, “PHENYLPYRAZOLE COMPOUND, AND PLANT DISEASE CONTROL METHOD” (priority 2022, published 2026).

How the values were obtained:
[1] = tested on: Phakopsora pachyrhizi; assay: Test Example 15 Control Test Against Soybean Rust Fungus (spore germination, 96 well titer plate); format: cell-based; settings: treatment concentration 1 ppm, 23° C., several hours
Description: (§1) The term of “non-treated well” in Test Example 4, Test Example 5, and Test Example 6 represents a well wherein a test was carried out under the same conditions as those described in each Test Example except for dispensing DMSO instead of a diluted solution with DMSO comprising the Present compound. Also, the term of “non-treated” in Test Examples 15 to 17 represents a test which was carried out under the same conditions as those described in each Test Example except for dispensing DMSO instead of a diluted solution with DMSO comprising the Present compound. Also, the term of “non-treated leaf disk” in Test Example 7 represents a leaf disk wherein a test was carried out under the same conditions as those described in the Test Example except for dispensing DMSO instead of a diluted solution with DMSO comprising the Present compound. Also, the term of “non-treated” in Test Example 10 and Test Example 11 means that a diluted solution with water of a formulation comprising the Present compound was not sprayed.
The Present compound was diluted with DMSO to obtain a diluted solution containing 150 ppm of the compound, and 1 μL of the diluted solution was dispensed into a titer plate (96 well), and thereto was then dispensed 149 μL of an aqueous suspension (1.0×10^4/mL) of spores of Phakopsora pachyrhizi to which spores of Phakopsora pachyrhizi were suspended in advance. This plate was cultured at 23° C. for several hours, and then germinated spores of Phakopsora pachyrhizi were counted. As a result, when the treatment concentration was 1 ppm, the number of germinated spores in each well comprising any one of the Present compound 1, 11, 17, 18, 20, 23, 30, 33, 34, 35, 36, 37, 38, 39, 40, 41, 42, 43, 44, 46, 47, 48, 49, 50, 51, 52, 53, 54, 55, 56, 57, 58, 62, 63, 64, 65, 66, 67, 68, 69, 70, 71, 72, 73, 74, 75, 76, 77, 78, 79, 80, 81, 82, 83, 84, 85, 86, 87, 88, 89, 90, 91, 92, 93, 94, 95, 96, 97, 98, 99, 100, 101, or 102 as the test compound was 50% or less relative to the number of germinated spores in the non-treated well.

[2] = tested on: Cochliobolus miyabeanus; assay: Test Example 6 Control Test Against Rice Brown Spot Fungus (96 well titer plate growth); format: cell-based; settings: 1 μL of 150 ppm DMSO solution + 150 μL YB liquid medium, 23° C., 3 days, absorbance at 550 nm
Description: as §1
Each of the Present compound 17, 33, 36, 37, 39, 40, 41, 42, 43, 44, 48, 49, 50, 51, 52, 53, 62, 68, 69, 70, 71, 76, 77, 79, 80, 81, 82, 83, 84, or 97 was diluted with DMSO to obtain a diluted solution containing 150 ppm of each compound, and 1 μL of the diluted solution was dispensed into a titer plate (96 well), and thereto was then dispensed 150 μL of a YB liquid medium to which spores of Cochliobolus miyabeanus were inoculated in advance. This plate was cultured at 23° C. for 3 days, thereby allowing Cochliobolus miyabeanus to undergo proliferation, and the absorbance at 550 nm of each well of the titer plate was then measured to determine a degree of growth of Cochliobolus miyabeanus. As a result, the degree of growth in the well treated with each of the above Present compounds was 50% or less relative to the degree of growth in the non-treated well.

[3] = tested on: soybean rust fungus (Phakopsora pachyrhizi) having an amino acid substitution of F129L in a mitochondrial cytochrome b protein; assay: Test Example 7 Control Test Against Soybean Rust (leaf disk); format: in vivo; settings: 200 ppm, 10 μL per soybean leaf disk (cultivar: Kurosengoku), inoculated after 1 day
Description: as §1
A true leaf of a soybean (cultivar: Kurosengoku) was cut into a diameter of 1 cm to prepare each leaf disk. To each well of a 24 well microplate was dispensed 1 mL of an agar medium (agar concentration 1.2%), and then one of said leaf disk was placed on the agar medium in each well. To a mixture of Sorpol (registered trademark) 1200KX (0.5 μL), DMSO (4.5 μL), and xylene (5 μL) was added a DMSO solution (20 μL) comprising a test compound (10000 ppm), and the resulting mixture was mixed. The resulting mixture was diluted with ion exchange water to prepare a mixture comprising a prescribed concentration of the test compound.
The resulting mixture was sprayed into each leaf disk at a ratio of 10 μL per leaf disk. After 1 day, an aqueous suspension of spores of soybean rust fungus (Phakopsora pachyrhizi) having an amino acid substitution of F129L in a mitochondrial cytochrome b protein (1.0×10^5/mL) was inoculated by spraying on each leaf disk. After the inoculation, the microplate was placed into an artificial climate chamber (Lighting: 6 hours, Lights-out: 18 hours, Temperature: 23° C., Humidity: 60%). After 1 day, the leaf disks were air-dried until water droplets on the surfaces of the leaf disks disappeared, and the microplate was placed into the artificial climate chamber again for 12 days. Then, lesion area of soybean rust was investigated. As a result, when the prescribed concentration was 200 ppm, each lesion area of leaf disk treated with any one of the Present compound 9, 10, 11, 13, 14, 15, 16, 17, 18, 20, 32, 33, 34, 35, 36, 37, 38, 39, 40, 42, 43, 44, 47, 48, 49, 50, 51, 52, 53, 55, 56, 57, 58, 62, 63, 64, 65, 66, 67, 68, 69, 70, 71, 73, 74, 75, 76, 77, 78, 79, 80, 81, 82, 83, 84, 85, 86, 87, 88, 89, 90, 91, 92, 93, 94, 95, 96, 97, 98, 99, 100, 101, or 102 as the test compound was 30% or less relative to the lesion area of non-treated leaf disk.

[4] = tested on: Phakopsora pachyrhizi; assay: Test Example 11 Control Test Against Soybean Rust (pot test, spraying before inoculation); format: in vivo; settings: 200 ppm foliage spray, soybeans (Kurosengoku), inoculated after 2 to 5 days
Description: as §1
A plastic pot was filled with soil, soybeans (cultivar: Kurosengoku) were seeded thereto, and cultured in a greenhouse for 10 to 14 days. The Present compound 9, 10, 11, 13, 14, 15, 17, 18, 20, 21, 22, 23, 26, 27, 33, 34, 35, 36, 37, 38, 39, 40, 41, 42, 43, 44, 46, 47, 53, 54, 55, 56, 57, 58, 66, 67, 68, 69, 70, 71, 73, 74, 75, 76, 77, 78, 79, 80, 81, 82, 83, 84, 85, 86, 87, 88, 89, 90, 91, 92, 93, 94, 95, 96, 97, 98, 99, 100, 101, or 102 formulated according to the method described in the Formulation Example 1 was mixed with water in such a way that the concentration thereof was 200 ppm, and the resulting mixture was sprayed to foliage of the above soybeans so as to adequately adhere onto the surfaces of leaves of the above soybeans. After spraying the mixture, the soybeans were air-dried. After 2 to 5 days, an aqueous suspension of spores of Phakopsora pachyrhizi was inoculated by spraying to the soybeans. After the inoculation, the soybeans were placed in a greenhouse at 23° C. in daytime and at 20° C. in nighttime under a humid condition for 1 to 2 day(s), then cultured in a greenhouse for 12 days, and then a lesion area was investigated. As a result, the lesion area in the soybeans treated with each of the above Present compound was 30% or less relative to the lesion area in the non-treated soybeans.

Structure (SMILES)	number of germinated spores relative to the non-treated well [1] [%]	degree of growth relative to the degree of growth in the non-treated well [2] [%]	lesion area relative to the lesion area of non-treated leaf disk [3] [%]	lesion area relative to the lesion area in the non-treated soybeans [4] [%]
Cc1ccc(-c2ccn(S(=O)(=O)c3ccoc3)n2)cc1F [compound 70]	≤ 50	≤ 50	≤ 30	≤ 30
O=S(=O)(c1ccoc1)n1ccc(-c2cc(F)c(Br)c(F)c2)n1 [compound 36]	≤ 50	≤ 50	≤ 30	≤ 30
O=S(=O)(c1cccs1)n1ccc(-c2ccc(C(F)(F)F)c(F)c2)n1 [compound 39]	≤ 50	≤ 50	≤ 30	≤ 30
O=S(=O)(c1ccco1)n1ccc(-c2ccc(I)cc2)n1 [compound 82]	≤ 50	≤ 50	≤ 30	≤ 30
Cc1ccc(-c2ccn(S(=O)(=O)c3ccco3)n2)cc1F [compound 69]	≤ 50	≤ 50	≤ 30	≤ 30
O=S(=O)(c1ccoc1)n1ccc(-c2ccc(Br)cc2)n1 [compound 51]	≤ 50	≤ 50	≤ 30	–
Cn1nccc1S(=O)(=O)n1ccc(-c2cc(F)c(Br)c(F)c2)n1 [compound 48]	≤ 50	≤ 50	≤ 30	–
O=S(=O)(c1cccs1)n1ccc(-c2ccc(I)cc2)n1 [compound 84]	≤ 50	≤ 50	≤ 30	≤ 30
Cc1ccc(-c2ccn(S(=O)(=O)c3cccnc3)n2)cc1F [compound 97]	≤ 50	≤ 50	≤ 30	≤ 30
O=S(=O)(c1cccs1)n1ccc(-c2ccc(Br)c(F)c2)n1 [compound 40]	≤ 50	≤ 50	≤ 30	≤ 30
Cc1ccc(-c2ccn(S(=O)(=O)c3ccco3)n2)cc1 [compound 76]	≤ 50	≤ 50	≤ 30	≤ 30
O=[N+]([O-])c1ccc(-c2ccn(S(=O)(=O)c3cccs3)n2)cc1 [compound 44]	≤ 50	≤ 50	≤ 30	≤ 30
O=S(=O)(c1cccs1)n1ccc(-c2ccc3c(c2)CCC3)n1 [compound 62]	≤ 50	≤ 50	≤ 30	–
O=S(=O)(c1ccoc1)n1ccc(-c2ccc(I)cc2)n1 [compound 83]	≤ 50	≤ 50	≤ 30	≤ 30
O=S(=O)(c1ccco1)n1ccc(-c2ccc(Br)cc2)n1 [compound 49]	≤ 50	≤ 50	≤ 30	–
O=S(=O)(c1ccco1)n1ccc(-c2ccc(Br)c(F)c2)n1 [compound 50]	≤ 50	≤ 50	≤ 30	–
O=S(=O)(c1ccoc1)n1ccc(-c2ccc(Br)c(F)c2)n1 [compound 52]	≤ 50	≤ 50	≤ 30	–
CSc1ccc(-c2ccn(S(=O)(=O)c3cccs3)n2)cc1 [compound 41]	≤ 50	≤ 50	–	≤ 30
